Data reported in US20140093884A1, “Process for Identifying Novel Anti-Inflammatory Molecules with Reduced Direct Transrepression of Genes Induced by Glucocorticoids” (UNIVERSITE DE STRASBOURG, priority 2011, published 2014).

Experiments:
[1] = tested on: TSLP; experiment: TSLP transcript levels in mouse ear epidermis after topical treatment (Q-RT-PCR); assay type: in vivo
From the text: Mice. […] Real time PCR. Total RNA was reverse transcribed using hexamers, followed by Q-PCR, as reported (Li et al., 2005). The GC agonist fluocinolone acetonide (FA) was applied to ears of mice concomitantly treated with the “low-calcemic” Vitamin D3 (VitD3) analog MC903 (Calcipotriol; hereafter called MC) to trigger TSLP expression (Li et al., 2006). […] As expected, the expression of the GC-inducible GPX3 (glutathione peroxidase 3) gene which harbours a (+)GRE (Tuckermann et al., 1999) was enhanced by FA (FIG. 10) and inhibited by RU co-treatment, while FA or RU had no effect on MC-dependent expression of the CYP24A1 gene (a VitD3 target) (FIG. 10). […] Although the basal TSLP level was similar in vehicle-treated WT and GR^ep−/− mice, FA blocked MC-induced TSLP expression in WT, but not in GR^ep−/− mice (not shown).

[2] = tested on: IR nGRE genes CCND1, PRKCB, FSTL1; conditions: mouse, in vivo
Experimental: (§1) Gene transcripts in epidermis of WT and GRdim mutant mice topically treated as indicated for 6 hours are analysed by Q-RT-PCR.
(§2) Note that epidermis was treated as indicated with TPA, to activate NFκB and AP1 factors.

[3] = tested on: Cox2 gene (NFκB and AP1 binding sites); experiment: Q-RT-PCR of Cox2 in epidermis of WT and GRdim mice topically treated 6 hours (TPA-activated); conditions: mouse, in vivo
Experimental: as §1, §2

[4] = tested on: IR0 and IR2 nGRE containing genes; experiment: Dex with RU co-administration, expression of IR0 and IR2 genes in epidermis, intestinal epithelium and liver; assay type: in vivo, mouse; conditions: Dex-treated mice, in all cases
Experimental: Mice. For topical treatment, 1 nmole (nm)/cm^2 MC903, at-RA or TPA; 6 nm/cm^2 FA, Dex or RU24858; and 90 nm/cm^2 RU486 were used. For systemic use, 100 ng/kg body weight active Vit D3, 8 mg/kg Dex and 64 mg/kg RU486 was intraperitoneally injected. GRdim mice were from the European Mouse Mutant Archives (EM:02123). Breeding, maintenance and experimental manipulation of mice were approved by the Animal Care and Use Committee of the IGBMC.

[5] = tested on: CYP24A1 gene (a VitD3 target); experiment: CYP24A1 transcript levels in mouse ear epidermis after topical treatment (Q-RT-PCR); assay type: in vivo; conditions: mouse ears, FIG. 10
From the text: (§3) Mice. […] Real time PCR. Total RNA was reverse transcribed using hexamers, followed by Q-PCR, as reported (Li et al., 2005). The GC agonist fluocinolone acetonide (FA) was applied to ears of mice concomitantly treated with the “low-calcemic” Vitamin D3 (VitD3) analog MC903 (Calcipotriol; hereafter called MC) to trigger TSLP expression (Li et al., 2006). […] As expected, the expression of the GC-inducible GPX3 (glutathione peroxidase 3) gene which harbours a (+)GRE (Tuckermann et al., 1999) was enhanced by FA (FIG. 10) and inhibited by RU co-treatment, while FA or RU had no effect on MC-dependent expression of the CYP24A1 gene (a VitD3 target) (FIG. 10).

[6] = tested on: IR nGRE (pGL3(VDRE) IR1 nGRE luciferase reporter); experiment: Luciferase reporter assay in A549 cells, pGL3(VDRE) IR nGRE plasmids; assay type: cell-based, human; conditions: pGL3(VDRE) IR1 nGRE
Experimental: Luciferase reporter assay. A549 cells seeded on 24-well tissue culture plates overnight at 70% confluency were transfected with 100 ng pCMV β galactosidase, 200 ng pGL3 reporter plasmids and wherever indicated, with 600 ng pSG5 hVDR plasmid (Green et al., 1988) into each well and maintained in medium containing charcoal treated FCS. 24 hours post-transfection, medium was changed and different compounds were added to it for 6 hours. […] Luciferase assay was carried out as instructed (Promega). Normalized values are reported as the mean±SEM; each value originates from at least three individual transfections with assays performed in duplicate.
To investigate whether additional DNA elements could be required to generate a repressing activity, the TSLP IR1 nGRE was inserted upstream of an enhancerless SV40 early promoter located 5′ to the luciferase coding sequence of pGL3 vector, A VDRE separated from the IR1 nGRE by a 314 bp-long DNA segment devoid of any known transregulator binding site (not shown) was inserted to generate a luciferase-expressing reporter plasmid (pGL3(VDRE) IR1 nGRE, FIG. 4), which was transfected into A549 cells, followed by addition of VitD3 and/or FA.
To investigate whether the 1 bp spacer between the inverted repeated motifs of TSLP IR1 nGRE was critical for its repressing function, pGL3-based luciferase plasmids containing the VDRE and TSLP nGRE motifs spaced by 0 to 5 bases (IR0 to IR5 nGREs) were transfected into A549 cells.

[7] = tested on: GPX3 (glutathione peroxidase 3) gene, (+)GRE; experiment: GPX3 transcript levels in mouse ear epidermis after topical treatment (Q-RT-PCR); assay type: in vivo; conditions: WT mice, ears, topical, FIG. 10
From the text: as §3

[8] = biological target: T1, GR complexes on (+)GRE and nGRE regions (Mus musculus, UniProt P06537); experiment: ChIP in vivo after RU24858 treatment
T1 construct: from tissue; host or cells: mouse epidermis, pancreas, liver
From the text: (§4) The “activity profile” of RU24858 was also investigated in vivo.

[9] = tested on: NFκB-driven transcription (PGL4-NFκB vector); experiment: Luciferase assay in IL-1β-activated A549 cells transfected with PGL4-NFκB; assay type: cell-based, human; conditions: 6 hours, FIG. 15A left panel
Experimental: (§5) A549 cells transfected with PGL4-NFκB (NFκBluc plasmid) of SEQ ID NO:56 and PGL4-AP1 (AP1luc plasmid) of SEQ ID NO:55 were treated as indicated for 6 hours, followed by luciferase assay. “BAY”=NFκB-specific inhibitor BAY 11-7082 and “JNK inhibit”=JNK inhibitor II). • B) Q-RT-PCR of gene transcripts from WT dorsal epidermis topically-treated with Dexamethasone or RU24858 for 18 hours (left panel) and from liver of WT mice IP-injected with Dexamethasone or RU24858 for 18 hours (right panel).
(§6) Luciferase reporter assay. A549 cells seeded on 24-well tissue culture plates overnight at 70% confluency were transfected with 100 ng pCMV β galactosidase, 200 ng pGL3 reporter plasmids and wherever indicated, with 600 ng pSG5 hVDR plasmid (Green et al., 1988) into each well and maintained in medium containing charcoal treated FCS. 24 hours post-transfection, medium was changed and different compounds were added to it for 6 hours. Final concentrations of the compounds are: FA, 500 nM; Dex or RU24858, 300 nM or 500 nM (wherever 300 nM Dex or RU was used, it is indicated in the figure, in all other cases, 500 nM concentration was used); active vitamin D3, 1 μM; IL-1β, 5 ng/ml; BAY 11-7082, 5 μM, JNK inhibitor II, 25 μM. Luciferase assay was carried out as instructed (Promega). […]

[10] = tested on: AP1-driven transcription (PGL4-AP1 vector); experiment: Luciferase assay in IL-1β-activated A549 cells transfected with PGL4-AP1; assay type: cell-based, human; conditions: 6 hours, FIG. 15A right panel
Experimental: as §5, §6

[11] = biological target: T2, repressing complex tethered to NFκB (Homo sapiens, UniProt P04150); experiment: ChIP of repressing complex tethered to NFκB on PGL4-NFκB vector in A549 cells; assay type: cell-based
T2 construct: GR-expressing cells are in vitro cultured cells, preferably human lung epithelial carcinoma cells A549; endogenous in cells; host or cells: A549 (CCL-185, ATCC)
T2 sequence (P04150 1-777): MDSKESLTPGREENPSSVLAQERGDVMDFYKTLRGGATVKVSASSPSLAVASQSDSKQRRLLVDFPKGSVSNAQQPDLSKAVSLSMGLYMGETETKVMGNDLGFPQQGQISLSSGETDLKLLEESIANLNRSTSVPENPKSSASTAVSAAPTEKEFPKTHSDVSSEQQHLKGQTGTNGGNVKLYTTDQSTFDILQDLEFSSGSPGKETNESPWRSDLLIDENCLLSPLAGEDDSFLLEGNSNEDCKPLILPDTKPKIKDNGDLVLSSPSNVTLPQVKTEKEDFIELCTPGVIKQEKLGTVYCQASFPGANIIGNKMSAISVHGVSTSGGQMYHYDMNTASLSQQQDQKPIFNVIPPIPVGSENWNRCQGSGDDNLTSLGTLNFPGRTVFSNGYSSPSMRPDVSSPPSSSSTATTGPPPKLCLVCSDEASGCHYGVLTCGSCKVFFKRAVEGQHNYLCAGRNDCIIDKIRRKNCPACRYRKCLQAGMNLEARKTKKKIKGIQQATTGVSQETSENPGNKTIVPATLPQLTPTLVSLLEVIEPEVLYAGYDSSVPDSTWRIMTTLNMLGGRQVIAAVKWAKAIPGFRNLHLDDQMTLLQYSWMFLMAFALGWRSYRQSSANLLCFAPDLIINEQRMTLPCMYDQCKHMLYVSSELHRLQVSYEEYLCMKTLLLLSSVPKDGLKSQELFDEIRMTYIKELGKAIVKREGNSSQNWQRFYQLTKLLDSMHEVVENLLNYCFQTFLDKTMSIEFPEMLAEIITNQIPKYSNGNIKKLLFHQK
Experimental: For ChIP assays to test GR and cofactor binding to the nGRE, +GRE or NFκB region of various luciferase reporter plasmids, ˜60% confluent A549 cells in 100 mm TC dish were transfected with 2 μg of respective plasmids using fugene 6 reagent (Roche) and maintained in charcoal treated FCS containing medium. 44 hours post-transfection, 500 nM FA or Dex or RU24858 and/or 5 μM RU486, 5 ng/ml IL-1β (final conc.) was added to the medium for 2 hours, followed by formaldehyde treatment and processing as described above.

[12] = tested on: genes of which the skin expression was enhanced by topical TPA treatment; experiment: Down-regulation of TPA-enhanced genes in mouse skin (NFκB-mediated tethered transrepression); assay type: in vivo; conditions: compared with Dex
From the text: as §4

[13] = tested on: IR0, IR1 and IR2 nGRE-containing genes; experiment: Q-RT-PCR of IR nGRE-containing genes in WT mouse epidermis or liver after Dexamethasone or RU24858 for 18 hours; conditions: in vivo, FIG. 15B, compared with Dex
Experimental: as §5
(§7) Real time PCR. Total RNA was reverse transcribed using hexamers, followed by Q-PCR, as reported (Li et al., 2005).
as §4

[14] = tested on: (+)GRE-containing GGT1 and ERP27 genes; experiment: GGT1 and ERP27 expression in mouse liver after RU24858; assay type: in vivo
From the text: as §7, §4

[15] = biological target: T3, GR (Homo sapiens, UniProt P04150); conditions: cited from earlier work
T3 sequence (P04150 1-777): T2 sequence (P04150 1-777)

[16] = tested on: (+)GRE (PGL3(VDRE) (+)GRE luciferase reporter); experiment: Luciferase reporter assay in A549 cells, PGL3(VDRE) (+)GRE vector; assay type: cell-based, human; conditions: compared with Dex
Experimental: as §6, with “(Promega). Normalized values are reported as the mean±SEM; each value originates from at least three individual transfections with assays performed in duplicate.” for “(Promega).”

[17] = biological target: T3, GR; conditions: cited from earlier work; remark: listed apart in the source
[18] = tested on: (+)GRE-containing GPX3 gene; experiment: GPX3 expression in mouse epidermis after topical RU24858; assay type: in vivo
From the text: as §7, §4

C=C1/C(=C\C=C2/CCC[C@]3(C)[C@@H]([C@H](C)/C=C/[C@@H](O)C4CC4)CC[C@@H]23)C[C@@H](O)C[C@@H]1O [MC903, Calcipotriol]
MC-induced TSLP expression in GRep-/- compared with WT mice ([1]; GRep-/- vs WT mice): more efficient | TSLP RNA level ([1]; WT mice, ears, topical MC903): increase

CC#C[C@]1(O)CC[C@H]2[C@@H]3CCC4=CC(=O)CCC4=C3[C@@H](c3ccc(N(C)C)cc3)C[C@@]21C [RU486, mifepristone]
FA block of MC-induced TSLP RNA upon RU co-treatment ([1]; WT mice, ears, topical): restored | FA-induced inhibition of basal TSLP RNA level upon co-application of RU486 ([1]; WT mice, ears, topical): relieved | effect of Dex treatment on IR nGRE-mediated transrepression upon excess RU co-treatment [2]: reverted | effect of RU on NFκB/AP1-mediated tethered transrepression [3]: little effect | GC-induced repression of IR0 and IR2 genes upon co-administration of RU [4]: relieved | effect on MC-dependent expression of the CYP24A1 gene [5]: no effect | FA-induced decrease of luciferase expression (IR1 nGRE) upon RU addition [6]: prevented | FA-enhanced GPX3 expression upon RU co-treatment [7]: inhibited

C[C@@H]1C[C@H]2[C@@H]3CCC4=CC(=O)C=C[C@]4(C)[C@@]3(F)[C@@H](O)C[C@]2(C)[C@H]1C(=O)CC#N [RU24858]
GR-SMRT/NCoR repressing complexes on nGRE regions [8]: recruitment of GR-SMRT/NCoR repressing complexes | assembly of an activating complex on (+)GRE of GPX3, GGT1 and ERP27 [8]: did not induce assembly of an activating complex | repression of IL1β-induced activation of transcription by NFκB [9]: almost as efficient as Dex | repression of IL1β-induced activation of transcription by AP1 [10]: almost as efficient as Dex | recruiting a repressing complex tethered to NFκB bound to its cognate element [11]: as efficient as Dex | down-regulating, through NFκB-mediated tethered transrepression, genes enhanced by topical TPA [12]: as efficient as Dex | transrepression of IR0 nGRE gene CCND1 [13]: as efficient as Dex | transrepression of IR1 nGRE gene CYP26A1 [13]: as efficient as Dex | transrepression of IR1 nGRE gene K14 [13]: as efficient as Dex | transrepression of IR1 nGRE gene PRKCB [13]: as efficient as Dex | transrepression of IR1 nGRE gene TSLP [13]: as efficient as Dex | transrepression of IR2 nGRE gene DPAGT1 [13]: as efficient as Dex | GC-dependent expression of the ERP27 gene [14]: did not activate | GC-dependent expression of the GGT1 gene [14]: did not activate | dissociated profile (tethered indirect transrepression vs direct transactivation) in vitro [15]: exhibit the expected dissociated profile in vitro | inducing transactivation of (+)GRE pGL3 luciferase plasmid [16]: much less efficient than Dex | dissociation upon administration in vivo [17]: failed to confirm this dissociation | GC-dependent expression of the (+)GRE-containing GPX3 gene [18]: did not activate
